Results as given in patent publication US6527981B1, “Azole/amine oxide preservatives” (Lonza Inc., priority 1999, dated 2003).
Values after ≈ are worked out from the molar mass of the structure shown. Like-named read-outs stand apart in the source and are kept apart here.

Columns and labels:
[1] = system: C. globosum (soft rot decay fungi); assay: agar dilution plate method, wood rot fungi (MIC, IC50, percent retardation); type: cell-based; settings: for MIC: Chaetomium globosum; for C. globosum IC50 / IC50 C. globosum: Table2D curve fitting; for MIC C. globosum: Table 8; for MIC C. globosum / IC50 C. globosum: ppm of amine oxide or didecyldimethyl ammonium chloride
[2] = system: T. versicolor (white rot fungi); assay: as above; type: cell-based; settings: for MIC: Trametes versicolor
[3] = system: G. trabeum (brown rot fungi); assay: as above; type: cell-based; settings: for MIC: Gloeophyllum trabeum
[4] = system: P. placenta (brown rot fungi); assay: as above; type: cell-based
[5] = 20° C., cited from earlier work; for Solubility in Water^b: Material Safety Data Sheet
[6] = amine oxide alone, 100% growth retardation, read-out: MIC (ppm of amine oxides) C. globosum
[7] = amine oxide alone, 100% growth retardation, read-out: MIC (ppm of amine oxides) T. versicolor
[8] = amine oxide alone, 100% growth retardation, read-out: MIC (ppm of amine oxides) G. trabeum
[9] = amine oxide alone, 100% growth retardation, read-out: MIC (ppm of amine oxides) P. placenta
[10] = amine oxide alone, 100% growth retardation
[11] = azole alone, read-out: C. globosum MIC
[12] = azole alone, read-out: T. versicolor MIC
[13] = azole alone, Table2D curve fitting
[14] = azole alone, read-out: G. trabeum MIC
[15] = azole alone, read-out: P. placenta MIC
[16] = Table 8, ppm of amine oxide or didecyldimethyl ammonium chloride
[17] = ppm of amine oxide or didecyldimethyl ammonium chloride, Table2D curve fitting

CCCCCCCCCCCCCCCCCC[N+](C)(C)[O-] [Octadecyl-DMAO, octadecyl dimethylamine oxide]
MIC [1, 6]: > 1000 µg/mL
MIC [2, 7]: > 1000 µg/mL
Qa, concentration of amine oxide alone required to yield 100% retardation, T. versicolor ([2]; amine oxide alone): 1000 ppm
MIC [3, 8]: > 1000 µg/mL
Qa, concentration of amine oxide alone required to yield 100% retardation, G. trabeum ([3]; amine oxide alone): 1000 ppm
Qa, concentration of amine oxide alone required to yield 100% retardation, P. placenta ([4]; amine oxide alone): 1000 ppm
MIC [4, 9]: > 1000 µg/mL

CCCCCCCC[N+](C)(C)[O-] [Octyldimethylamine oxide, octyl dimethylamine oxide]
MIC [1, 6]: > 1000 µg/mL
MIC [2, 7]: 750 µg/mL (≈ 4.33 mM)
Qa, concentration of amine oxide alone required to yield 100% retardation, T. versicolor ([2]; amine oxide alone): 750 ppm
MIC [3, 8]: 1000 µg/mL (≈ 5.77 mM)
Qa, concentration of amine oxide alone required to yield 100% retardation, G. trabeum ([3]; amine oxide alone): 1000 ppm
Qa, concentration of amine oxide alone required to yield 100% retardation, P. placenta ([4]; amine oxide alone): 1000 ppm
MIC [4, 9]: 1000 µg/mL (≈ 5.77 mM)

CCCCCCCC/C=C\CCCCCCCC[N+](C)(C)[O-] [Oleyl-DMAO]
MIC (ppm of amine oxides) C. globosum [1, 10]: >1000 ppm
MIC (ppm of amine oxides) T. versicolor [2, 10]: >1000 ppm
MIC (ppm of amine oxides) G. trabeum [3, 10]: >1000 ppm
MIC (ppm of amine oxides) P. placenta [4, 10]: >1000 ppm

CCCC1COC(Cn2cncn2)(c2ccc(Cl)cc2Cl)O1 (stereo not drawn) [Propiconazole, propiconazole]
MIC [1, 11]: > 50 µg/mL
C. globosum IC50 ([1]; azole alone): 11.7 ppm
MIC [2, 12]: 50 µg/mL (≈ 0.146 mM)
Qb, concentration of azole alone required to yield 100% retardation, T. versicolor ([2]; azole alone): 50 ppm
T. versicolor IC50 [2, 13]: 3 ppm
MIC [3, 14]: > 50 µg/mL
Qb, concentration of azole alone required to yield 100% retardation, G. trabeum ([3]; azole alone): 50 ppm
G. trabeum IC50 [3, 13]: 0.9 ppm
Qb, concentration of azole alone required to yield 100% retardation, P. placenta ([4]; azole alone): 50 ppm
P. placenta IC50 [4, 13]: 0.7 ppm
MIC [4, 15]: 50 µg/mL (≈ 0.146 mM)

CC(C)(C)C(O)(CCc1ccc(Cl)cc1)Cn1cncn1 (stereo not drawn) [Tebuconazole, tebuconazole]
MIC [1, 11]: 50 to 500 µg/mL (≈ 0.162 to 1.62 mM)
C. globosum IC50 ([1]; azole alone): 34.5 ppm
MIC [2, 12]: 25 µg/mL (≈ 0.0812 mM)
Qb, concentration of azole alone required to yield 100% retardation, T. versicolor ([2]; azole alone): 25 ppm
T. versicolor IC50 [2, 13]: 2.3 ppm
MIC [3, 14]: 10 µg/mL (≈ 0.0325 mM)
Qb, concentration of azole alone required to yield 100% retardation, G. trabeum ([3]; azole alone): 10 ppm
G. trabeum IC50 [3, 13]: <0.1 ppm
Qb, concentration of azole alone required to yield 100% retardation, P. placenta ([4]; azole alone): 50 ppm
P. placenta IC50 [4, 13]: 1.7 ppm
MIC [4, 15]: 50 µg/mL (≈ 0.162 mM)
Solubility in Water^b [5]: 32 ppm at 20 °C

CCCCCCCCCCCCCC[N+](C)(C)[O-] [Tetradecyl-DMAO, tetradecyl dimethylamine oxide]
MIC [1, 6]: > 1000 µg/mL
MIC [2, 7]: > 1000 µg/mL
Qa, concentration of amine oxide alone required to yield 100% retardation, T. versicolor ([2]; amine oxide alone): 1000 ppm
MIC [3, 8]: > 1000 µg/mL
Qa, concentration of amine oxide alone required to yield 100% retardation, G. trabeum ([3]; amine oxide alone): 1000 ppm
Qa, concentration of amine oxide alone required to yield 100% retardation, P. placenta ([4]; amine oxide alone): 1000 ppm
MIC [4, 9]: > 1000 µg/mL

CC(C)(C)C(=O)C(Oc1ccc(Cl)cc1)n1cncn1 (stereo not drawn) [Triadimefon, triadimefon]
Solubility in Water^b [5]: 64 ppm at 20 °C
Solubility in water^a ([5]; The Pesticide Manual, 11th Edition): 64 ppm/20 °C

branched alkyl (C10-C14) dimethylamine oxide [Branched alkyl (C10-C14) DMAO]
MIC C. globosum [1]: >1000 ppm
MIC (ppm of amine oxides) C. globosum [1, 10]: >1000 ppm
IC50 C. globosum [1]: 153 ppm
IC50 T. versicolor [2]: 84 ppm
MIC (ppm of amine oxides) T. versicolor [2]: 500 ppm
MIC T. versicolor [2]: 500 ppm
Qa, concentration of amine oxide alone required to yield 100% retardation, T. versicolor [2]: 500 ppm
IC50 G. trabeum [3]: 44 ppm
MIC (ppm of amine oxides) G. trabeum [3]: 250 ppm
MIC G. trabeum [3]: 250 ppm
Qa, concentration of amine oxide alone required to yield 100% retardation, G. trabeum [3]: 250 ppm
IC50 P. placenta [4]: 89 ppm
MIC (ppm of amine oxides) P. placenta [4]: 500 ppm
MIC P. placenta [4]: 500 ppm
Qa, concentration of amine oxide alone required to yield 100% retardation, P. placenta [4]: 500 ppm

coco-alkyl (C12-C16) dimethylamine oxide [Coco-DMAO]
MIC C. globosum [1]: >1000 ppm
MIC (ppm of amine oxides) C. globosum [1, 10]: >1000 ppm
IC50 C. globosum [1]: 47 ppm
MIC T. versicolor [2, 16]: 750 ppm
Qa, concentration of amine oxide alone required to yield 100% retardation, T. versicolor ([2]; amine oxide alone): 750 ppm
MIC (ppm of amine oxides) T. versicolor [2, 10]: 750 ppm
IC50 T. versicolor [2, 17]: 51 ppm
MIC G. trabeum [3, 16]: 500 ppm
Qa, concentration of amine oxide alone required to yield 100% retardation, G. trabeum ([3]; amine oxide alone): 500 ppm
MIC (ppm of amine oxides) G. trabeum [3, 10]: 500 ppm
IC50 G. trabeum [3, 17]: 9 ppm
MIC P. placenta [4, 16]: 1000 ppm
MIC (ppm of amine oxides) P. placenta [4, 10]: 500-1000 ppm
IC50 P. placenta [4, 17]: 5 ppm

coco-alkyl-di(hydroxyethyl)amine oxide [Coco-di(hydroxyethyl)-amine oxide]
MIC (ppm of amine oxides) C. globosum [1, 10]: >1000 ppm
MIC (ppm of amine oxides) T. versicolor [2, 10]: 500 ppm
MIC (ppm of amine oxides) G. trabeum [3, 10]: 500 ppm
MIC (ppm of amine oxides) P. placenta [4, 10]: 500 ppm

tallow-alkyl-di(hydroxyethyl)amine oxide [Tallow-di(hydroxyethyl)-amine oxide]
MIC (ppm of amine oxides) C. globosum [1, 10]: >1000 ppm
MIC (ppm of amine oxides) T. versicolor [2, 10]: >1000 ppm
MIC (ppm of amine oxides) G. trabeum [3, 10]: >1000 ppm
MIC (ppm of amine oxides) P. placenta [4, 10]: >1000 ppm
